Results published in PMC11329928, “Design, synthesis and structure-activity relationship (SAR) studies of an unusual class of non-cationic fatty amine-tripeptide conjugates as novel synthetic antimicrobial agents” (Frontiers in Pharmacology, 2024).
Structures can show the parent of a compound that is named as a salt. Where two headings read alike, the source gives them in different places.

Tests used:
[1] = RP-HPLC retention time used to determine hydrophobicity; assay type: physicochemical; conditions: analytical RP-HPLC, C18 Sunfire column (4.6 mm × 150 mm, 3.5 μm); A = 0.05% TFA in water, B = acetonitrile; 10% to 100% B in 20 min then isocratic 100% B 10 min; 217 and 254 nm; used as measure of hydrophobicity
Experimental: The purity of the lipopeptides was checked by analytical RP-HPLC on an Agilent Infinity instrument equipped with a Diode Array and a C18 Sunfire column (4.6 mm × 150 mm, 3.5 μm). As mobile phase A:B mixtures were used, where A = 0.05% TFA in water and B = acetonitrile. The samples were analyzed at 217 and 254 nm in a gradient from 10% of B to 100% of B in 20 min followed by isocratic 100% of B in 10 min.
Retention times were used to determine the hydrophobicity ([Neubauer et al., 2020]). HRMS (EI+) was carried out in an Agilent 6,520 Accurate-Mass Q-TOF LC/MS spectrometer using water/acetonitrile mixtures. Results can be found in Supplementary Section S3, S4.

[2] = test system: human HeLa cervix carcinoma cells; assay type: cell-based
Experimental: (§1) DICAM’s cytotoxicity was determined employing a modified MTT assay as described elsewhere ([Antúnez-Mojica et al., 2016]) using human lung carcinoma epithelial cells A549, human fetal lung fibroblasts IMR-90, and human HeLa cervix carcinoma cells treated with increasing concentrations of DICAMs (0.8–200 µM range). A549 cells were grown in RPMI 1640 (Gibco; Fisher Scientific, Spain) supplemented with 10% FCS, 2 mM glutamine, 100 IU/mL penicillin and 100 μg/mL streptomycin. IMR-90 and HeLa cells were cultured in DMEM (Gibco; Fisher Scientific, Spain) supplemented with 10% FCS, 2 mM L-glutamine, 1 mM pyruvate, […] penicillin, 100 μg/mL streptomycin and 40 μg/mL gentamycin. Cell viability was assessed after 48 h exposure to DICAMs. Vinblastine was used as a positive control. IC50 value is the concentration that gives 50% inhibition of cell growth and was determined using SigmaPlot (Systat) fitting to a Four Parameter Logistic curve.

[3] = test system: human lung carcinoma epithelial cells A549; assay type: cell-based
Experimental: as §1

[4] = test system: S. pyogenes T; assay: Dose dependence of bacterial viability (CFU counting, Hill fit); assay type: cell-based, Streptococcus pyogenes; conditions: for SC (stationary concentration, Δlog = 0), S. pyogenes T / EC50 / Δlogmax, S. pyogenes T: 2 h treatment, Hill fit; for SC (stationary concentration, Δlog = 0), S. pyogenes T: BHI medium, added at T1, 10^7–10^8 CFU/mL, CFU vs untreated controls; for EC50: read-out: K 1/2 (concentration yielding half-variation in Δlogmax), S. pyogenes T (converted); for Δlogmax, S. pyogenes T: maximum variation in viability
Text: First, the substitution of the fatty amino chain of 18 carbon atoms of the reference compound DICAM 2 by either an OMe group (methylated tripeptide DICAM 5) or an amine with 12 carbon atoms (DICAM 9) abolished the activity against all three pathogens. However, the activity remained intact when the chain of the fatty amine of prototypes DICAMs 1 and 4 was two carbon atoms shorter (DICAM 10 and DICAM 12, respectively), based on S. pneumoniae and S. pyogenes results. […] Third, Glu and Ala were tolerated as C-terminal residues of the lipotripeptides. […] In addition, deletion of the C-terminal Glu (DICAM 13) eradicated the activity against S. pneumoniae and S. aureus. However, a delay and small inhibition of S. pyogenes ^T growth was still observed. Fourth, Glu (DICAMs 19 and 20) and Orn (DICAMs 21 and 22) were tolerated as N-terminal residues, with the impact of these modifications being pathogen-dependent. […] SAR studies continued by measuring the dose dependence of DICAM’s activity at T1 with all the compounds found to be active against S. pyogenes or S. aureus in the initial screening, and all but one compound in the case of S. pneumoniae. The OD values of bacterial cultures were monitored after DICAM addition, and the decrease in the number of viable bacteria was measured relative to controls (Figures 4–6; Supplementary Figure S1). As antibacterial efficacy may decline with the bacterium dose in the inoculum ([Belley et al., 2009]; [Udekwu et al., 2009]; [Luca et al., 2013]), the assays were performed using the bacterial concentrations necessary for the fluorescence experiments in Section 2.3 (10^7–10^8 CFU/mL). At these high bacterial densities, MICs were determined as the DICAM concentration at which bacteria neither grow nor are killed (the stationary concentration (SC)), following [Udekwu et al., 2009]. By fitting the logarithmic plot of cell viability decrease vs. the DICAM dose to a Hill function (see Section 5.2.3.1) we were able to determine the maximum variation in viability (Δlogmax = ∆log f - ∆log 0, where ∆log f and ∆log 0 are the upper and lower limits of Δlog) in the assay conditions, the SC concentration (Δlog = 0), the dose required for half-variation in Δlogmax (K 1/2), and the cooperativity of the antimicrobial effect (N H).
Susceptibility to DICAMs was first tested by growth-inhibition assays at 50 and 100 μM of compound. Briefly, working solutions at 5 mM or 10 mM DICAM in pure DMSO were prepared from DICAM stocks (40 mM in pure DMSO) and diluted with fresh culture medium to 5× the desired final concentration. Aliquots (50 µL) of these solutions were added to 200 µL of bacterium cultures grown to early exponential phase (OD550/600 c. a. 0.15–0.2 in sterile 96-well plates (Cultek, Spain). Incubation continued for 10 h at 37°C and turbidity (OD550/600) values were measured every 20 min to monitor growth and lysis, using a VersaMax microplate reader (Molecular Devices; United Kingdom). Next, the activity dependence on DICAM’s dose was examined by measuring the turbidity of treated and untreated cultures as a function of time. Also, the decay of bacterial viability (CFU/mL) at selected times of treatment was assessed by colony counting on LB-agar or TSA plates after overnight incubation at 37°C. By default, 10 μL of 10-fold serially diluted samples were plated, which set the lower detection limit at 10^2 CFU/mL (10^1 CFU/mL when 100 μL of the undiluted sample was seeded).
As antibacterial efficacy may decline with the bacterium dose in the inoculum ([Belley et al., 2009]; [Udekwu et al., 2009]; [Luca et al., 2013]), activity assays were performed using the bacterial concentrations required for the fluorescence experiments in Section 2.3 (10^7–10^8 CFU/mL). At such bacterial densities, MICs were determined as the DICAM concentration at which bacteria neither grow nor are killed under assay conditions (the stationary concentration (SC)), as indicated in Section 2.2. […]

Row | Compound | Retention time [1] | IC50 ([2]; 48 h) | IC50 ([3]; 48 h) | SC (stationary concentration, Δlog = 0), S. pyogenes T ([4]; 37°C) | EC50 ([4]; BHI, 37°C) | Δlogmax, S. pyogenes T ([4]; BHI, 37°C) | Decrease of the number of viable bacteria in the inoculum within 2 h ([4]; S. pyogenes T, BHI, 37°C) | Reduction of bacterial viability at 3 × SC, S. pyogenes T ([4]; after 2 h of incubation at 3 × SC) | IC50 ([2]; modified MTT, 48 h exposure, 0.8–200 µM, four parameter logistic fit, ± SD, at least three independent experiments, read-out: IC50 HeLa) | IC50 ([3]; modified MTT, 48 h exposure, 0.8–200 µM, four parameter logistic fit, ± SD, at least three independent experiments, read-out: IC50 A549)
1 | CCCCCCCCCCCCCCCCCCNC(=O)[C@H](CCC(=O)O)NC(=O)[C@H]1CCCN1C(=O)[C@@H](N)CCCN [DICAM 22, Orn- Pro -Glu-NH-C18H37 · HCl] | 16.91 min | 57.2 ± 0.4 µM | 59.6 ± 0.9 µM |  |  |  |  |  |  | 
2 | CCCCCCCCCCCCCCCCCCNC(=O)[C@H](CCC(=O)O)NC(=O)[C@H]1CCCN1C(=O)[C@H](C)N [DICAM 4, Ala- Pro -Glu-NH-C18H37 ·HCl] | 19.24 min | 32 ± 2 µM | ≥ 25 µM | 10 ± 4 µM | 51 ± 10 µM | 6.8 ± 0.8 logarithmic units |  |  |  | 
3 | CCCCCCCCCCCCCCCCCCNC(=O)[C@H](CCC(=O)O)NC(=O)[C@H]1CCCN1C(=O)[C@@H](N)CC(N)=O [DICAM 2, Asn- Pro -Glu-NH-C18H37 ·HCl] | 12.14 min | 42 ± 2 µM | 42 ± 5 µM |  | 14 ± 2 µM | 3.9 ± 0.4 logarithmic units | 99.9–99.99% | 94.5%–99.9 |  | 
4 | Ala - Pro -Glu-NH-C18H37 · HCl [DICAM 23] | 19.31 min |  |  |  |  |  |  |  | 13.4 ± 0.9 µM | 80.6 ± 0.2 µM
5 | CCCCCCCCCCCCCCCCCCNC(=O)[C@H](CCC(=O)O)NC(=O)[C@H]1CCCN1C(=O)[C@H](CCCN)NC(=O)OCc1ccccc1 [DICAM 21, Cbz-Orn- Pro -Glu-NH-C18H37] | 19.70 min |  |  | ∼10 µM | 38 ± 40 µM | 4 ± 2 logarithmic units |  |  |  | 
6 | CCCCCCCCCCCCCCCCCCNC(=O)[C@H](C)NC(=O)[C@H]1CCCN1C(=O)[C@H](C)N [DICAM 14, Ala- Pro -Ala-NH-C18H37 · HCl] | 19.50 min | 6.3 ± 0.7 µM | 8 ± 0.3 µM | 22 ± 10 µM | 41 ± 10 µM | 3.7 ± 0.8 logarithmic units |  |  |  | 
